Test systems include 786-0; A498; CCRF-CEM; DU-145; EKVX; HCT-116; HCT-15; HOP-92; HT-29; MDA-MB-231; MDA-MB-435; NCI-H522; NCI/ADR-RES; OVCAR-3; RPMI-8226; SK-MEL-28; SNB-19; SNB-75; SR; SW-620.
What all share (assay): NCI-60 cell line screen, 48 h

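Five concentrations, 48 hours, 96-well plates. Abbreviation: GI50, concentration required for 50% inhibition of growth.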 Calls of active or inactive are those of the source. No stated cut-off is given here; in the data, active = GI50 up to about 1.1 µM and inactive = higher.

Consider `CCCCCCCCOCC1S(=O)(=O)OCCOS1(=O)=O`, for which the GI50 with 786-0, with A498, in the assay on CCRF-CEM, in the assay with DU-145, in the assay on EKVX and with HCT-116 was > 100 µM (inactive) throughout. The GI50 is over 100 µM with HCT-15; > 100 µM (inactive) with HOP-92; > 100 µM (inactive) in the assay with HT-29; > 100 µM (inactive) with MDA-MB-231; > 100 µM (inactive) with MDA-MB-435; > 100 µM (inactive) with NCI-H522. Further, the GI50 with NCI/ADR-RES, in the assay on OVCAR-3, in the assay on RPMI-8226, with SK-MEL-28, with SNB-19 and in the assay with SNB-75 was > 100 µM (inactive) throughout. In addition, the GI50 is 40.4 µM (inactive) in the assay on SR and > 100 µM (inactive) in the assay with SW-620.

Consider `CC(C)(C)[C@H]1NC(=O)CN1C(=O)OCc1ccccc1`, for which the GI50 is > 100 µM (inactive) with 786-0; 10.7 µM (inactive) with A498; > 100 µM (inactive) in the assay on CCRF-CEM; > 100 µM (inactive) in the assay with DU-145; > 100 µM (inactive) with EKVX; 67.3 µM (inactive) in the assay on HCT-116. Further, the GI50 is over 100 µM in the assay with HCT-15; 5.12 µM (inactive) in the assay with HOP-92; > 100 µM (inactive) in the assay with HT-29; 35.5 µM (inactive) in the assay on MDA-MB-231; > 100 µM (inactive) in the assay with MDA-MB-435; > 100 µM (inactive) in the assay with NCI-H522. Besides, the GI50 in the assay on NCI/ADR-RES is > 100 µM (inactive); in the assay with RPMI-8226, 87.7 µM (inactive); in the assay on SK-MEL-28 it was > 100 µM (inactive); with SNB-19, > 100 µM (inactive); in the assay with SNB-75, > 100 µM (inactive); in the assay on SR it was 20 µM (inactive). In addition, the GI50 with SW-620 was > 100 µM (inactive).

In the case of `O=c1cc(O)c2ccccc2o1` [4-HYDROXYCOUMARINS], the GI50 in the assay with 786-0, with A498, in the assay with CCRF-CEM, in the assay on DU-145, in the assay with EKVX and in the assay on HCT-116 was > 100 µM (inactive) throughout. Moreover, the GI50 in the assay with HOP-92, in the assay with HT-29, in the assay with MDA-MB-231, with MDA-MB-435, in the assay on NCI-H522 and in the assay on NCI/ADR-RES was > 100 µM (inactive) each time. Moreover, the GI50 with OVCAR-3, in the assay with RPMI-8226, in the assay with SK-MEL-28, in the assay with SNB-19, in the assay on SNB-75 and with SR was > 100 µM (inactive) each time. Besides, the GI50 in the assay on SW-620 is > 100 µM (inactive).

Consider `COc1ccc(/C=C/c2cnc3ccccc3n2)cc1OC`, for which the GI50 is 53.6 µM (inactive) with 786-0; 45.7 µM (inactive) with A498; > 100 µM (inactive) in the assay with CCRF-CEM; > 100 µM (inactive) in the assay on DU-145; 63.1 µM (inactive) with EKVX; 47.2 µM (inactive) in the assay on HCT-116. The GI50 with HCT-15 is 37 µM; in the assay on HOP-92, 94.8 µM (inactive); in the assay with HT-29, 36.1 µM (inactive); in the assay on MDA-MB-231 it was 99.8 µM (inactive); with MDA-MB-435 it was 44.1 µM (inactive); with NCI-H522, 24.1 µM (inactive). Also, the GI50 was 38.2 µM (inactive) in the assay with NCI/ADR-RES; 93.1 µM (inactive) with OVCAR-3; 71.6 µM (inactive) with RPMI-8226; 92.3 µM (inactive) in the assay on SK-MEL-28; 63.8 µM (inactive) in the assay on SNB-75; > 100 µM (inactive) in the assay with SR. The GI50 in the assay on SW-620 is > 100 µM (inactive).

With `Cc1ccc(C(=O)/C=C(\O)C(=O)NN=C(c2ccccc2)c2ccccc2)cc1`, the GI50 in the assay on 786-0 was 28.4 µM (inactive); in the assay with A498, > 100 µM (inactive); in the assay on CCRF-CEM, 29.2 µM (inactive); in the assay with DU-145, > 100 µM (inactive); in the assay on EKVX, > 100 µM (inactive); with HCT-116, 36.5 µM (inactive). Besides, the GI50 in the assay on HCT-15 is 39 µM; in the assay with HOP-92 it was 28 µM (inactive); with HT-29, > 100 µM (inactive); with MDA-MB-231, > 100 µM (inactive); in the assay with MDA-MB-435, > 100 µM (inactive); in the assay on NCI/ADR-RES, 30.5 µM (inactive). Also, the GI50 was > 100 µM (inactive) in the assay on OVCAR-3; 26.6 µM (inactive) in the assay with RPMI-8226; > 100 µM (inactive) in the assay with SK-MEL-28; 58.9 µM (inactive) in the assay on SNB-19; 82.4 µM (inactive) with SNB-75; 27.2 µM (inactive) in the assay with SR. For the same compound, in the assay on SW-620, the GI50 was 50.5 µM (inactive).

In the case of `COCC1OC(N2C(=O)NC(=O)[C@@H]3C=C4CCCCC4=C[C@@H]32)C(OC)C1OC` (some centres not stated), the GI50 was > 100 µM (inactive) with 786-0; > 100 µM (inactive) with A498; > 100 µM (inactive) with DU-145; > 100 µM (inactive) with EKVX; > 100 µM (inactive) in the assay with HCT-116; over 100 µM in the assay with HCT-15. Besides, the GI50 in the assay on HOP-92 was 75 µM (inactive); in the assay with HT-29, > 100 µM (inactive); in the assay on MDA-MB-231, > 100 µM (inactive); in the assay on MDA-MB-435, > 100 µM (inactive); in the assay on NCI-H522, > 100 µM (inactive); in the assay with NCI/ADR-RES, > 100 µM (inactive). For the same compound, the GI50 in the assay on OVCAR-3 was > 100 µM (inactive); in the assay with RPMI-8226, > 100 µM (inactive); in the assay on SK-MEL-28 it was > 100 µM (inactive); with SNB-19, > 100 µM (inactive); in the assay with SNB-75 it was > 100 µM (inactive); with SR, 19.1 µM (inactive). Moreover, in the assay on SW-620, the GI50 was > 100 µM (inactive).

Take `CCSC1=N/C(=C\c2ccco2)C(Cl)=N1`: the GI50 in the assay with 786-0, with A498, with CCRF-CEM, in the assay on DU-145, in the assay on EKVX and in the assay with HCT-116 was > 100 µM (inactive) each time. The GI50 with HCT-15 was over 100 µM; in the assay on HOP-92, > 100 µM (inactive); in the assay on HT-29 it was > 100 µM (inactive); in the assay on MDA-MB-231 it was > 100 µM (inactive); in the assay on MDA-MB-435, > 100 µM (inactive); with NCI/ADR-RES it was > 100 µM (inactive). In addition, the GI50 with OVCAR-3, with RPMI-8226, in the assay on SK-MEL-28, in the assay with SNB-19, with SNB-75 and with SR was > 100 µM (inactive) throughout. Further, the GI50 in the assay on SW-620 was > 100 µM (inactive).

With `O=C1NC(c2cccc3ccccc23)Nc2ccccc21` (configuration not stated), the GI50 was 0.0593 µM (active) in the assay with 786-0; 0.0262 µM (active) in the assay with A498; 0.01 µM (active) in the assay with CCRF-CEM; 0.064 µM (active) in the assay with DU-145; 0.143 µM (active) in the assay with EKVX; 0.0336 µM (active) in the assay with HCT-116. Also, the GI50 was under 0.0224 µM with HCT-15; 0.172 µM (active) in the assay with HOP-92; 0.0873 µM (active) with MDA-MB-231; 0.0153 µM (active) in the assay with MDA-MB-435; < 0.0199 µM (active) in the assay with NCI/ADR-RES; 0.015 µM (active) in the assay with OVCAR-3. Moreover, the GI50 in the assay with RPMI-8226 was 0.0257 µM (active); in the assay with SK-MEL-28 it was 0.127 µM (active); in the assay on SNB-19, 0.0399 µM (active); in the assay on SNB-75, 0.0111 µM (active); in the assay with SR, < 0.0153 µM (active); with SW-620, 0.0277 µM (active).

`Cc1cc2ccccc2c[n+]1CC(O)C[n+]1cc2ccccc2cc1C`: the GI50 in the assay on 786-0 is > 100 µM (inactive); in the assay on A498 it was > 100 µM (inactive); in the assay with DU-145 it was > 100 µM (inactive); with EKVX, > 100 µM (inactive); in the assay with HCT-116, > 100 µM (inactive); in the assay with HCT-15, over 100 µM. The GI50 in the assay on HOP-92, in the assay with HT-29, in the assay on MDA-MB-231, in the assay on MDA-MB-435, in the assay on NCI-H522 and in the assay with NCI/ADR-RES was > 100 µM (inactive) throughout. In addition, the GI50 was 51.6 µM (inactive) with OVCAR-3; > 100 µM (inactive) with RPMI-8226; > 100 µM (inactive) with SK-MEL-28; > 100 µM (inactive) in the assay with SNB-19; > 100 µM (inactive) with SNB-75; > 100 µM (inactive) in the assay on SR. In the assay on SW-620, the GI50 is > 100 µM (inactive).

For `O=C1CC(=O)NC(NN2C(=O)CSC2c2ccccc2)=N1` (configuration not stated), the GI50 with 786-0 was > 100 µM (inactive); with A498, > 100 µM (inactive); in the assay with CCRF-CEM, > 100 µM (inactive); in the assay with DU-145 it was > 100 µM (inactive); in the assay with HCT-116, > 100 µM (inactive); with HCT-15, over 100 µM. The GI50 is 55.8 µM (inactive) in the assay on HOP-92; > 100 µM (inactive) with HT-29; > 100 µM (inactive) in the assay with MDA-MB-231; > 100 µM (inactive) in the assay with MDA-MB-435; > 100 µM (inactive) in the assay with NCI-H522; > 100 µM (inactive) in the assay on NCI/ADR-RES. Moreover, the GI50 was > 100 µM (inactive) with OVCAR-3; > 100 µM (inactive) in the assay with RPMI-8226; > 100 µM (inactive) with SK-MEL-28; 30.9 µM (inactive) in the assay with SNB-75; > 100 µM (inactive) with SR; > 100 µM (inactive) in the assay with SW-620.

On to `Cc1cccc(-c2nc3ccc([N+](=O)[O-])cc3c(=O)o2)c1`, for which the GI50 in the assay with 786-0 was 48.8 µM (inactive); with A498 it was 28.6 µM (inactive); in the assay with CCRF-CEM, 27.8 µM (inactive); in the assay on DU-145, 59.8 µM (inactive); with HCT-116, 42.8 µM (inactive); with HCT-15 it was 74.3 µM. For the same compound, the GI50 in the assay on HOP-92 is 16 µM (inactive); in the assay with HT-29, 62.4 µM (inactive); in the assay with MDA-MB-231, > 100 µM (inactive); with MDA-MB-435, 89.7 µM (inactive); in the assay with NCI-H522 it was 32.3 µM (inactive); in the assay on NCI/ADR-RES it was 26.1 µM (inactive). For the same compound, the GI50 in the assay on OVCAR-3 is 47.9 µM (inactive); in the assay with RPMI-8226 it was 45.6 µM (inactive); in the assay on SK-MEL-28 it was > 100 µM (inactive); in the assay on SNB-75, > 100 µM (inactive); in the assay on SR it was 28.8 µM (inactive); in the assay with SW-620, 73.3 µM (inactive).

The record behind these values is ChEMBL document CHEMBL1201862, “PubChem BioAssay data set” (2004).
